Measurements reported in patent US20250312499A1, “KISSPEPTIN RECEPTOR (KISS1R) TARGETED THERAPEUTICS AND USES THEREOF” (priority 2024, published 2025).
Numbered stars: 1 amine (or outer) side, 2 acyl side, 3 side chain; on linkers, the order of the positions; unused ones are H or OH. Square brackets hold non-standard residues; d marks the D form. Peptide text beside a SMILES is read from it. * marks the point of attachment. DOTA = O=C(O)CN1CCN(CC(=O)O)CCN(CC(=O)*)CCN(CC(=O)O)CC1; Gly(N-(3-F-4-Me-benzyl)) = Cc1ccc(CNCC(=O)*)cc1F; Gly(Nα-4-MeO-benzyl) = COc1ccc(CNCC(=O)*)cc1; Api(1-amidino) = N=C(N)N1CCC(N)(C(=O)O)CC1; Hydrocinnamoyl(4-Me) = Cc1ccc(CCC(=O)*)cc1; X14 = O=C([C@H]1CC[C@@H](CN[*:1])CC1)[*:2]; d(γGlu) = O=C(O)[C@@H](CCC(=O)[*:2])N[*:1]; Bip = N[C@@H](Cc1ccc(-c2ccccc2)cc1)C(=O)O; Hydrocinnamoyl(4-I) = O=C(CCc1ccc(I)cc1)*; Phe(4-CN) = N#Cc1ccc(C[C@H](N)C(=O)O)cc1; HO(CH2CH2O)2CH2CH2CO = O=C(CCOCCOCCO)*; Phe(3-F) = N[C@@H](Cc1cccc(F)c1)C(=O)O; 2Nal = N[C@@H](Cc1ccc2ccccc2c1)C(=O)O; d2Nal = N[C@H](Cc1ccc2ccccc2c1)C(=O)O; X1 = O=C(CN1CCC(N[*:1])CC1)[*:2]; dCya = N[C@H](CS(=O)(=O)O)C(=O)O; 4Pal = N[C@@H](Cc1ccncc1)C(=O)O; d4Pal = N[C@H](Cc1ccncc1)C(=O)O; Cha = N[C@@H](CC1CCCCC1)C(=O)O; N(octyl)Gly = CCCCCCCCNCC(=O)O; X15 = O=C(CNCCc1ccc(I)cc1)*; 4Amb = NCc1ccc(C(=O)O)cc1; Api = NC1(C(=O)O)CCNCC1; PEG2 = NCCOCCOCCC(=O)O; Ahx = NCCCCCC(=O)O; azaGly = NNC(=O)O; Sar = CNCC(=O)O

These compounds were tested against human kisspeptin receptor (Homo sapiens (Human), UniProt Q969F8) (assay: Human KISS1R binding assay (membrane competition binding)). Conditions: 90 min at room temperature; competition with 0.2 nM [125I]-metastin (45-54); Flp-In T-Rex 293 kisspeptin membranes; metal complexes nonradioactive Ga, In, Lu; read-out: hKiSSR Binding Ki (90 min).
In short: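 Radioligand competition: 0.2 nM [125I]-metastin (45-54) displaced by test ligand (usually 0–10,000 nM) over 90 min at room temperature, pH 7.4 buffer with 0.1% BSA. Receptor source is crude membrane (5–10 μg) from tetracycline-induced Flp-In T-Rex 293 cells. Bound label filtered and counted; Ki from non-linear regression.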

Chain of human kisspeptin receptor (Q969F8 whole entry): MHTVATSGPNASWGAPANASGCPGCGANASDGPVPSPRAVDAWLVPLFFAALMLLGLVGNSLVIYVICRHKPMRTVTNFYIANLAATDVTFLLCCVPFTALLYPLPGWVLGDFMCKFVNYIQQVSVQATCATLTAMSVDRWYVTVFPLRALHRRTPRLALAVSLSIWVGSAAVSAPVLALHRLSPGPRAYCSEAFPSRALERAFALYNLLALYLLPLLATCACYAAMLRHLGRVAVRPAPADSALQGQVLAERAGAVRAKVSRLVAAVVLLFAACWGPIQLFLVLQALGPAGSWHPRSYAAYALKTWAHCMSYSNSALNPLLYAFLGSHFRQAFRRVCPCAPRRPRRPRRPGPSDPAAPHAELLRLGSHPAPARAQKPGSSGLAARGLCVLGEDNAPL

SMILES | Ki
CC(C)C[C@H](NC(=O)NNC(=O)[C@H](CC1CCCCC1)NC(=O)[C@@H](NC(=O)[C@H](CC(N)=O)NC(=O)[C@H](CCCCNC(=O)CN1CCN(CC(=O)O)CCN(CC(=O)O)CCN(CC(=O)O)CC1)NC(=O)[C@@H](Cc1ccc(O)cc1)NC(=O)CCOCCOCCNC(=O)CCc1ccc(I)cc1)[C@@H](C)O)C(=O)NC1(C(=O)N[C@@H](Cc2c[nH]c3ccccc23)C(N)=O)CCN(C(=N)N)CC1 [Compound 327] ({Hydrocinnamoyl(4-I)-PEG2}-[dY]K(DOTA)NT[Cha][azaGly]L[Api(1-amidino)]W-NH2) | < 10 nM
Cc1ccc(CNCC(=O)N2CCC(NC(=O)[C@H](CC(C)C)NC(=O)NNC(=O)[C@H](Cc3cccc(F)c3)NC(=O)[C@@H](NC(=O)[C@H](CC(N)=O)NC(=O)[C@H](CCC(=O)O)NC(=O)[C@H]3CC[C@@H](CNC(=O)CN4CCN(CC(=O)O)CCN(CC(=O)O)CCN(CC(=O)O)CC4)CC3)[C@@H](C)O)(C(=O)N[C@@H](Cc3ccncc3)C(N)=O)CC2)cc1F [Compound 170] ({DOTA}-[X14]ENT[Phe(3-F)][azaGly]L[Api](Gly(N-(3-F-4-Me-benzyl)))[4Pal]-NH2) | < 10 nM
Cc1ccc(CNCC(=O)N2CCC(NC(=O)[C@H](CC(C)C)NC(=O)NNC(=O)[C@H](Cc3ccccc3)NC(=O)[C@@H](NC(=O)[C@H](CCC(=O)O)NC(=O)[C@H](CCCCNC(=O)CN3CCN(CC(=O)O)CCN(CC(=O)O)CCN(CC(=O)O)CC3)NC(=O)CCOCCOCCO)[C@@H](C)O)(C(=O)N[C@@H](Cc3ccncc3)C(N)=O)CC2)cc1F [Compound 252] ({HO(CH2CH2O)2CH2CH2CO}-K(DOTA)ETF[azaGly]L[Api](Gly(N-(3-F-4-Me-benzyl)))[4Pal]-NH2) | > 100 nM
Cc1ccc(CNCC(=O)N2CCC(NC(=O)[C@H](CC(C)C)NC(=O)NNC(=O)[C@H](CC3CCCCC3)NC(=O)[C@@H](NC(=O)[C@H](CC(N)=O)NC(=O)[C@@H](Cc3ccncc3)NC(=O)CCCCCNC(=O)CN3CCN(CC(=O)O)CCN(CC(=O)O)CCN(CC(=O)O)CC3)[C@@H](C)O)(C(=O)N[C@@H](Cc3c[nH]c4ccccc34)C(N)=O)CC2)cc1F [Compound 314] ({DOTA-Ahx}-[d4Pal]NT[Cha][azaGly]L[Api](Gly(N-(3-F-4-Me-benzyl)))W-NH2) | < 10 nM
Cc1ccc(CNCC(=O)N2CCC(NC(=O)[C@H](CC(C)C)NC(=O)NNC(=O)[C@H](Cc3ccccc3)NC(=O)[C@@H](NC(=O)[C@H](CC(N)=O)NC(=O)c3ccc(CNC(=O)CN4CCN(CC(=O)O)CCN(CC(=O)O)CCN(CC(=O)O)CC4)cc3)[C@@H](C)O)(C(=O)N[C@@H](Cc3ccc(C#N)cc3)C(N)=O)CC2)cc1F [Compound 240] ({DOTA-4Amb}-NTF[azaGly]L[Api](Gly(N-(3-F-4-Me-benzyl)))[Phe(4-CN)]-NH2) | < 10 nM
CNCC(=O)N1CCC(NC(=O)[C@H](CC(C)C)NC(=O)NNC(=O)[C@H](CC2CCCCC2)NC(=O)[C@@H](NC(=O)[C@H](CC(N)=O)NC(=O)[C@@H](CCCCNC(=O)CN2CCN(CC(=O)O)CCN(CC(=O)O)CCN(CC(=O)O)CC2)NC(=O)[C@@H](Cc2ccc(O)cc2)NC(=O)CCOCCOCCNC(=O)CCc2ccc(C)cc2)[C@@H](C)O)(C(=O)N[C@H](Cc2c[nH]c3ccccc23)C(N)=O)CC1 [Compound 358] ({Hydrocinnamoyl(4-Me)-PEG2}-[dY][dK](DOTA)NT[Cha][azaGly]L[Api](Sar)[dW]-NH2) | < 10 nM
CSCC[C@H](NC(=O)c1ccc(CNC(=O)CN2CCN(CC(=O)O)CCN(CC(=O)O)CCN(CC(=O)O)CC2)cc1)C(=O)N[C@@H](Cc1ccccc1)C(=O)N[C@@H](CCCCNC(=O)CCCCC(=O)N[C@@H](Cc1ccccc1)C(=O)NNC(=O)N[C@@H](CC(C)C)C(=O)NC1(C(=O)N[C@@H](Cc2c[nH]c3ccccc23)C(N)=O)CCN(C(=O)CNCc2ccc(C)c(F)c2)CC1)C(=O)O [Compound 203] | < 10 nM
Cc1ccc(CNCC(=O)N2CCC(NC(=O)[C@H](CC(C)C)NC(=O)NNC(=O)[C@H](Cc3ccccc3)NC(=O)[C@@H](NC(=O)[C@H](CC(N)=O)NC(=O)[C@@H](Cc3ccncc3)NC(=O)CCCCCNC(=O)CN3CCN(CC(=O)O)CCN(CC(=O)O)CCN(CC(=O)O)CC3)[C@@H](C)O)(C(=O)N[C@@H](Cc3ccncc3)C(N)=O)CC2)cc1F [Compound 295] ({DOTA-Ahx}-[d4Pal]NTF[azaGly]L[Api](Gly(N-(3-F-4-Me-benzyl)))[4Pal]-NH2) | < 10 nM
Cc1ccc(CNCC(=O)N2CCC(NC(=O)[C@H](CC(C)C)NC(=O)NNC(=O)[C@H](Cc3ccccc3)NC(=O)c3ccc(CNC(=O)[C@@H](CS(=O)(=O)O)NC(=O)[C@@H](CS(=O)(=O)O)NC(=O)CN4CCN(CC(=O)O)CCN(CC(=O)O)CCN(CC(=O)O)CC4)cc3)(C(=O)N[C@@H](Cc3c[nH]c4ccccc34)C(N)=O)CC2)cc1F [Compound 146] ({DOTA}-[dCya][dCya][4Amb]F[azaGly]L[Api](Gly(N-(3-F-4-Me-benzyl)))W-NH2) | < 10 nM
Cc1ccc(CNCC(=O)N2CCC(NC(=O)[C@H](CC(C)C)NC(=O)NNC(=O)[C@H](Cc3ccncc3)NC(=O)[C@@H](NC(=O)[C@H](CC(N)=O)NC(=O)CN3CCC(NC(=O)CN4CCN(CC(=O)O)CCN(CC(=O)O)CCN(CC(=O)O)CC4)CC3)[C@@H](C)O)(C(=O)N[C@@H](Cc3ccncc3)C(N)=O)CC2)cc1F [Compound 258] ({DOTA}-[X1]NT[4Pal][azaGly]L[Api](Gly(N-(3-F-4-Me-benzyl)))[4Pal]-NH2) | > 100 nM
COc1ccc(CNCC(=O)N2CCC(NC(=O)[C@H](CC(C)C)NC(=O)NNC(=O)[C@H](Cc3ccccc3)NC(=O)[C@@H](NC(=O)[C@H](CC(N)=O)NC(=O)[C@H](CCC(=O)O)NC(=O)CN3CCN(CC(=O)O)CCN(CC(=O)O)CCN(CC(=O)O)CC3)[C@@H](C)O)(C(=O)N[C@@H](Cc3ccccc3)C(N)=O)CC2)cc1 [Compound 237] ({DOTA}-ENTF[azaGly]L[Api](Gly(Nα-4-MeO-benzyl))F-NH2) | < 10 nM
CNCC(=O)N1CCC(NC(=O)[C@H](CC(C)C)NC(=O)NNC(=O)[C@H](Cc2ccccc2)NC(=O)[C@@H](NC(=O)[C@H](CC(N)=O)NC(=O)[C@@H](Cc2ccc3ccccc3c2)NC(=O)[C@@H](Cc2ccc(O)cc2)NC(C)=O)[C@@H](C)O)(C(=O)N[C@@H](Cc2c[nH]c3ccccc23)C(N)=O)CC1 [Compound 393] (Ac-[dY][d2Nal]NTF[azaGly]L[Api](Sar)W-NH2) | < 10 nM
Cc1ccc(CNCC(=O)N2CCC(NC(=O)[C@H](CC(C)C)NC(=O)NNC(=O)[C@H](Cc3ccccc3)NC(=O)CC[C@@H](NC(=O)CN3CCN(CC(=O)O)CCN(CC(=O)O)CCN(CC(=O)O)CC3)C(=O)O)(C(=O)N[C@@H](Cc3c[nH]c4ccccc34)C(N)=O)CC2)cc1F [Compound 156] ({DOTA-d(γGlu)}-F[azaGly]L[Api](Gly(N-(3-F-4-Me-benzyl)))W-NH2) | < 10 nM

Results, then the compound that gave them:

Ki | SMILES
< 10 nM | Cc1ccc(CNCC(=O)N2CCC(NC(=O)[C@H](CC(C)C)NC(=O)NNC(=O)[C@H](Cc3ccccc3)NC(=O)[C@@H](NC(=O)[C@H](CC(N)=O)NC(=O)[C@@H](Cc3c[nH]c4ccccc34)NC(=O)[C@@H](Cc3c[nH]cn3)NC(=O)[C@@H](Cc3ccc(O)cc3)NC(=O)CCCCCNC(=O)CN3CCN(CC(=O)O)CCN(CC(=O)O)CCN(CC(=O)O)CC3)[C@@H](C)O)(C(=O)N[C@@H](Cc3c[nH]c4ccccc34)C(N)=O)CC2)cc1F [Compound 32] ({DOTA-Ahx}-[dY][dH][dW]NTF[azaGly]L[Api](Gly(N-(3-F-4-Me-benzyl)))W-NH2)
< 10 nM | CCCCCCCCNCC(=O)N1CCC(NC(=O)[C@H](CC(C)C)NC(=O)NNC(=O)[C@H](Cc2ccccc2)NC(=O)[C@@H](NC(=O)[C@H](CC(N)=O)NC(=O)[C@@H](Cc2ccc3ccccc3c2)NC(=O)[C@@H](Cc2ccc(O)cc2)NC(=O)CCCCCNC(=O)CN2CCN(CC(=O)O)CCN(CC(=O)O)CCN(CC(=O)O)CC2)[C@@H](C)O)(C(=O)N[C@H](Cc2c[nH]c3ccccc23)C(N)=O)CC1 [Compound 374] ({DOTA-Ahx}-[dY][d2Nal]NTF[azaGly]L[Api](N(octyl)Gly)[dW]-NH2)
< 10 nM | CC(C)C[C@H](NC(=O)NNC(=O)[C@H](Cc1ccccc1)NC(=O)[C@@H](NC(=O)[C@H](CC(N)=O)NC(=O)[C@H](Cc1ccc(-c2ccccc2)cc1)NC(=O)[C@@H](Cc1ccc(O)cc1)NC(=O)CCCCCNC(=O)CN1CCN(CC(=O)O)CCN(CC(=O)O)CCN(CC(=O)O)CC1)[C@@H](C)O)C(=O)NC1(C(=O)N[C@@H](Cc2c[nH]c3ccccc23)C(N)=O)CCN(C(=N)N)CC1 [Compound 198] ({DOTA-Ahx}-[dY][Bip]NTF[azaGly]L[Api(1-amidino)]W-NH2)
< 10 nM | Cc1ccc(CNCC(=O)N2CCC(NC(=O)[C@H](CC(C)C)NC(=O)NNC(=O)[C@H](Cc3ccccc3)NC(=O)[C@@H](NC(=O)[C@H](CC(N)=O)NC(=O)[C@@H](Cc3c[nH]c4ccccc34)NC(=O)CCCCCNC(=O)CN3CCN(CC(=O)O)CCN(CC(=O)O)CCN(CC(=O)O)CC3)[C@@H](C)O)(C(=O)N[C@@H](Cc3c[nH]c4ccccc34)C(N)=O)CC2)cc1F [Compound 30] ({DOTA-Ahx}-[dW]NTF[azaGly]L[Api](Gly(N-(3-F-4-Me-benzyl)))W-NH2)
10 to 100 nM | CC(C)C[C@H](NC(=O)NNC(=O)[C@H](Cc1ccccc1)NC(=O)[C@@H](NC(=O)[C@H](CC(N)=O)NC(=O)[C@@H](Cc1ccc2ccccc2c1)NC(=O)[C@@H](Cc1ccc(O)cc1)NC(=O)CCCCCNC(=O)CN1CCN(CC(=O)O)CCN(CC(=O)O)CCN(CC(=O)O)CC1)[C@@H](C)O)C(=O)NC1(C(=O)N[C@H](Cc2c[nH]c3ccccc23)C(N)=O)CCN(C(=O)CNCCc2ccc(I)cc2)CC1 [Compound 373] ({DOTA-Ahx}-[dY][d2Nal]NTF[azaGly]L[Api](X15)[dW]-NH2)
< 10 nM | Cc1ccc(CNCC(=O)N2CCC(NC(=O)[C@H](CC(C)C)NC(=O)NNC(=O)[C@H](Cc3ccccc3)NC(=O)[C@@H](NC(=O)[C@H](CC(N)=O)NC(=O)[C@H](Cc3ccc4ccccc4c3)NC(=O)[C@@H](Cc3ccc(O)cc3)NC(=O)CCCCCNC(=O)CN3CCN(CC(=O)O)CCN(CC(=O)O)CCN(CC(=O)O)CC3)[C@@H](C)O)(C(=O)N[C@@H](Cc3c[nH]c4ccccc34)C(N)=O)CC2)cc1F [Compound 118] ({DOTA-Ahx}-[dY][2Nal]NTF[azaGly]L[Api](Gly(N-(3-F-4-Me-benzyl)))W-NH2)
